Measurements: patent US9675768B2, “Aerosolization device” (Nektar Therapeutics, priority 2008, dated 2017)

Experiment: In-vitro particle size distribution of the aerosol at the mouthpiece
Format: physicochemical
Procedure: Percentage of inhaled mass is a measured quantity, and represents the amount of aerosolized medicament which would be inhaled by a patient. Chamber percent is measured and represents the amount remaining in the chamber 22. MMAD is the mass median aerodynamic size of the aerosolized droplets 79, and FPF<5 μm denotes the fine particle fraction under 5 microns, which represents a particle size distribution well suited for delivery to the deep lung. Inhaled mass may be measured by a variety of means, such as by scintigraphy, or by washing the device or component thereof, eluting the drug and directly measuring, e.g. by titration. Inhaled mass measurements are described, for example, in European Standard EN13544-1, which is incorporated by reference herein.
In this Example an in-vitro delivered dose and particle size distribution (PSD) of the device of FIG. 1 was measured, using a dose of 400 mg of amikacin (125 mg/ml; 3.2 ml). Thus, the in-vitro percentage inhaled mass of amikacin sulfate at the mouthpiece under simulated patient breathing was quantified. Under the following conditions: Tidal Volume (TV) was 500 mL; Respiratory rate (RR) was 15 and an inspiratory to expiratory ratio was 2:3. Three devices were tested. Also, an in-vitro particle size distribution (PSD) at the was determined. Mass balance was determined at the end of the first inhaled mass test run. Breathing parameters of the ventilator were verified pre- and post-inhaled mass test runs. The experimental set up is depicted in FIG. 9.

With `NCC[C@H](O)C(=O)N[C@@H]1C[C@H](N)[C@@H](O[C@H]2O[C@H](CN)[C@@H](O)[C@H](O)[C@H]2O)[C@H](O)[C@H]1O[C@H]1O[C@H](CO)[C@@H](O)[C@H](N)[C@H]1O.O=S(=O)(O)O.O=S(=O)(O)O` [amikacin, amikacin sulfate] the “Fine Particle fraction of less than 5 microns (FPF<5.0 μm)” value was “about 66%”, the “Fine Particle Dose of less than 5 microns (FPD<5.0 μm)” value (400 mg dose) was “about 240 mg” and the “Mass Median Aerodynamic Diameter (MMAD) of the aerosolized particles” value (three hand-held devices) was 3.7-3.8 μm.
